Test results from patent publication US20040241720A1, “Sodium activated potassium ion channel for therapeutic drug screening” (priority 2003, published 2004).

Target: T1, rSlo2 channels (Rattus norvegicus, UniProt Q9Z258)
T1 construct: expressed in transfected cells; host or cells: Xenopus laevis oocytes injected with capped cRNA (pOX vector); inside-out patches
T1 sequence (Q9Z258 1-1239): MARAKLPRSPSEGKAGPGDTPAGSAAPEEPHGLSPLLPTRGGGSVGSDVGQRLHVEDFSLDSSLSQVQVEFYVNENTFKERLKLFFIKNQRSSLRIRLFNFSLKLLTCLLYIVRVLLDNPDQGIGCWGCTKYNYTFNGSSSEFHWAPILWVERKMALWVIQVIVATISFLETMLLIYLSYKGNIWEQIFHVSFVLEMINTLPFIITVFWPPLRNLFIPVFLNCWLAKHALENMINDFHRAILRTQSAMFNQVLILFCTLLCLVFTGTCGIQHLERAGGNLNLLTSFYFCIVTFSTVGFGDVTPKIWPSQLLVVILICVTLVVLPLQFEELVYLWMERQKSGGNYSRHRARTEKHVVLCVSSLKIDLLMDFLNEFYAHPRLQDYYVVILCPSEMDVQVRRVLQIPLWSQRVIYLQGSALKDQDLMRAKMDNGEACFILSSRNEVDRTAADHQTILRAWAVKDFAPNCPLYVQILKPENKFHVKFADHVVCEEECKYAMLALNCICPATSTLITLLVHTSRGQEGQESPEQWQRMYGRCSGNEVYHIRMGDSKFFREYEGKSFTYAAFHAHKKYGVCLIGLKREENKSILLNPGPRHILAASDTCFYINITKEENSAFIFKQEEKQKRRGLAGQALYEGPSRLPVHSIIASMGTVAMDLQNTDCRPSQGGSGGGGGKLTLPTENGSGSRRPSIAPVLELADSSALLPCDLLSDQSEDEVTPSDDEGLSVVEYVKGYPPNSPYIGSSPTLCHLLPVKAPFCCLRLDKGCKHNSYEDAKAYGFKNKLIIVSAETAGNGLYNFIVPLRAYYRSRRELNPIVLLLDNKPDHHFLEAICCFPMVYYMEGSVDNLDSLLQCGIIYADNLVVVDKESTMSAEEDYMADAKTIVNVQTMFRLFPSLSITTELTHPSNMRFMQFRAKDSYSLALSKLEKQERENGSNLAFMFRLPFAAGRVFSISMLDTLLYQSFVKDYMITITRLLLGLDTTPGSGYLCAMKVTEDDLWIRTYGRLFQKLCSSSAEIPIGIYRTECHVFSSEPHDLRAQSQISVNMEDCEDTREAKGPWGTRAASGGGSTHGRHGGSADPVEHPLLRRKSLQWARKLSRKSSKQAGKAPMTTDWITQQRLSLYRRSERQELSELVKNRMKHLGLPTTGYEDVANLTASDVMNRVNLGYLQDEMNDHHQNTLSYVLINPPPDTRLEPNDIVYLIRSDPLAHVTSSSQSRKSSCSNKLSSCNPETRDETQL
Experiment: Patch clamp of inside-out patches from Xenopus oocytes injected with rSlo2 cRNA
Format: cell-based
Experimental: FIG. 2a depicts current traces from an inside-out macropatch (2-3 MΩ electrode prior to seal formation) in the presence of 50 mM [Na+], FIG. 2a (i) and in the absence of [Na^+]i FIG. 2a (ii). Voltage steps (−70 mV to +70 mV) were applied in 10 mV increments from a holding potential of −70 mV. The calculated potassium equilibrium potential was −78 mV in these experiments. FIG. 2a (iii) The current-voltage relationship of the mean current obtained from 7 macropatches with a holding potential of −80 mV, and voltage steps from −80 to +80 mV in 10 mV increments FIG. 2a (iv) Plot of normalized IKNa obtained upon perfusion of inside-out patches with different Na^+ concentrations as indicated.
FIG. 2c depicts a current trace of an uninjected oocyte. […] For the macropatch experiments the pipette solution contained (in mM) 145 Na^+-gluconate, 5 KCI, 5 Ca^2+-gluconate, 3 Mg^2+-gluconate, 11 dextrose, 5 HEPES, pH 7.4 with NaOH. The bath solution contained (in mM): 110 KCI, 50 NaCI and 5 HEPES, pH 7.3 with KOH. NaCI was replaced by choline-Cl for the dose-response curve. In single channel experiments, the pipette solution contained (in mM) 80 K^+-gluconate, […], 5 HEPES, 2 MgCI2, pH 7.2 with KOH. The bath solution contained (in mM) 80 KCI, 80 NaCI or 80 cholineCl, 5 HEPES, 5 EGTA, pH 7.2 with KOH.
FIG. 5a (iii) depicts the current-voltage relationship of the mean current between 700-800 ms. The pipette solution contained (in mM) 80 K^+-gluconate, 80 Na^+-gluconate, 5 HEPES, 2 MgCI2, pH 7.2 with KOH. The bath solution contained (in mM) 80 KCI or 80 K^+-gluconate, 20 NaCI and 60 choline-Cl or 20 Na^+-gluconate and 120 dextrose, 5 HEPES, 5 EGTA, pH 7.2 with KOH. (b) (i) Dose response relationship for [Na+]i at 160 mM [CI]i or 10 mM [CI]i,. (ii) Dose response relationship for [CI]i at 80 mM [Na^+]i or 20 mM [Na^+]i. Currents for the dose response curves were measured and averaged over a 1 second interval at −60 mV and each patch was normalized to the current elicited in 80 mM [Na^+]i, and 160 mM [CI]i. Each experiment was completed within 120 seconds to minimize rundown and was perfused in order of decreasing [Na^+]i or [CI]i.
The single electrode patch clamp system was first used to analyze inside-out patches, and to investigate the properties of rSlo2 in the Xencpus oocyte expression system by transcribing cRNA and injecting it into oocytes.
To obtain efficient expression of rhSlo2.2 in Xencpus oocytes, the original rhSlo2.2 construct was cloned into pOX, a special vector optimized for oocyte expression. Capped cRNA was synthesized using the T3 mMessage mMachine kit (Ambion). rhSlo2.2 was linearized using NotI. Reactions were resuspended in nuclease-free water to a final concentration of 1.5 μg/μl. Oocytes were harvested from adult female Xenopus iaevis as described. Defolliculated oocytes were injected with approximately 75 ng of cRNA using a Drummond Nanojector. Injected oocytes were incubated at 19° C. in ND96 medium (in mM): 96 NaCl, 2 KCI, 1.8 CaCl2, 1 MgCl2, 5 HEPES, pH 7.5 with NaOH. Oocytes were analyzed 2-3 days after injection for single channel analysis or 3-6 days after injection for macroscopic current analysis.
Prior to recording, the vitelline membranes were mechanically removed. The contents of solutions used are described in the figure legends. […] Data were analyzed using pClamp 8.2 (Axon Instruments) and Sigmaplot 5 (Jandel Scientific) or Origin 5.0 (Microcal).

Compound: [Ca+2] [Ca^2+i]
- single channel activity (about 100 μM Ca^2+i, in the absence of Na^+i (data not shown)): inhibited
- channel activity (presence of about 80 μM ~200 μM Ca^2+i (data not shown)): no effect

Compound: Cl [Cl^−]
- current as fraction of I max (55 mM Cl^−, 20 mM sodium ions, estimated from dose response plot): approximately 0.18 of I max
- activation of rSlo2 by Cl^−i (seen only when Na^+i is also present): activated

Compound: [Na+] [Na^+]
- increase of amplitude of macroscopic current in patches (sodium concentration at cytoplasmic side increased from 10 to 50 mM, inside-out patch): more than ten times
